Among the data in patent publication US11802131B2, “Glutarimides for medical treatment” (C4 Therapeutics, Inc., priority 2017, dated 2023) are Kd values, retold here.

This assay deals with hCereblon(M1-L442)_hDDB1(M1-H1140) (Homo sapiens (Human), UniProt Q96SW2). Put plainly: Fluorescence direct binding protocol (tryptophan fluorescence titration). The note with it: 20° C., excited at 280 nm, recorded at 340 nm, assay buffer 50 mM Hepes 7.4 200 mM NaCl; read-out: Fluorescence h-Cereblon_DDB1 Mean Kd_EQ. As to the method:
Fluorescence Direct Binding Protocol
Determination of the affinities of compounds to protein containing one or more tryptophan is measurable by monitoring the fluorescence emission in direct mode. The measurements depending on the protein available amounts are performed either manually in a cuvette on ISS-PC1 photon counting spectrofluorometer or automatically in well plates on a fluorescence plate reader device. Fluorescence titrations are performed at 20° C. in the chosen binding assay buffer by using a defined constant protein concentration against ligand concentration variations. Small aliquots of known ligand concentration solubilized in DMSO were added and the fluorescence, excited at 280 nm, was recorded at 340 nm. The fluorescence intensity was corrected for protein dilution and for the filter effect (Birdsall et al.^72).
1) Optimization of measurement parameters to minimize protein consumption and to minimize the dilution effect and the DMSO content
2) Titration measurements of the protein against ligand by at least 12 titration steps to obtain a good s-curve fit
3) Repeat the same titration measurements with the ligand alone to enable correction
4) Check the stability of the protein once by titration against DMSO alone
5) Determination of the molar extinction coefficients of the ligand at 280 and 340 nm with help of an UV-spectrophotometer
6) Use Excel template for the correction of the measured raw data
7) Use GraphPad Prism software for the quadratic binding fit and the KD evaluation.

Structures are written as SMILES.

Chain of hCereblon(M1-L442)_hDDB1(M1-H1140) (Q96SW2 whole entry): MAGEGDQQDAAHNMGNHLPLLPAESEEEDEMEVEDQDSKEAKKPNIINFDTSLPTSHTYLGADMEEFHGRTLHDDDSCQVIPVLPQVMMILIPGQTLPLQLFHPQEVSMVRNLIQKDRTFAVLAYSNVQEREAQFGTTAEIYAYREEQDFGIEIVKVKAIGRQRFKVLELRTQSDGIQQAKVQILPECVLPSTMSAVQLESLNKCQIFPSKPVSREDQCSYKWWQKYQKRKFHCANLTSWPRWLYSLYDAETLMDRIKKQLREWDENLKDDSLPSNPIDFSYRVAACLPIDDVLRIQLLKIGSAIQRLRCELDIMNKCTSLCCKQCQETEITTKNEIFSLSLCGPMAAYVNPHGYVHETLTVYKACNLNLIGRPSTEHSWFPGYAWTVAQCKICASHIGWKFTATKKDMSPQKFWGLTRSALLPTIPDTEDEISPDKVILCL
Chain of hCereblon(M1-L442)_hDDB1(M1-H1140) (Q16531 whole entry partner): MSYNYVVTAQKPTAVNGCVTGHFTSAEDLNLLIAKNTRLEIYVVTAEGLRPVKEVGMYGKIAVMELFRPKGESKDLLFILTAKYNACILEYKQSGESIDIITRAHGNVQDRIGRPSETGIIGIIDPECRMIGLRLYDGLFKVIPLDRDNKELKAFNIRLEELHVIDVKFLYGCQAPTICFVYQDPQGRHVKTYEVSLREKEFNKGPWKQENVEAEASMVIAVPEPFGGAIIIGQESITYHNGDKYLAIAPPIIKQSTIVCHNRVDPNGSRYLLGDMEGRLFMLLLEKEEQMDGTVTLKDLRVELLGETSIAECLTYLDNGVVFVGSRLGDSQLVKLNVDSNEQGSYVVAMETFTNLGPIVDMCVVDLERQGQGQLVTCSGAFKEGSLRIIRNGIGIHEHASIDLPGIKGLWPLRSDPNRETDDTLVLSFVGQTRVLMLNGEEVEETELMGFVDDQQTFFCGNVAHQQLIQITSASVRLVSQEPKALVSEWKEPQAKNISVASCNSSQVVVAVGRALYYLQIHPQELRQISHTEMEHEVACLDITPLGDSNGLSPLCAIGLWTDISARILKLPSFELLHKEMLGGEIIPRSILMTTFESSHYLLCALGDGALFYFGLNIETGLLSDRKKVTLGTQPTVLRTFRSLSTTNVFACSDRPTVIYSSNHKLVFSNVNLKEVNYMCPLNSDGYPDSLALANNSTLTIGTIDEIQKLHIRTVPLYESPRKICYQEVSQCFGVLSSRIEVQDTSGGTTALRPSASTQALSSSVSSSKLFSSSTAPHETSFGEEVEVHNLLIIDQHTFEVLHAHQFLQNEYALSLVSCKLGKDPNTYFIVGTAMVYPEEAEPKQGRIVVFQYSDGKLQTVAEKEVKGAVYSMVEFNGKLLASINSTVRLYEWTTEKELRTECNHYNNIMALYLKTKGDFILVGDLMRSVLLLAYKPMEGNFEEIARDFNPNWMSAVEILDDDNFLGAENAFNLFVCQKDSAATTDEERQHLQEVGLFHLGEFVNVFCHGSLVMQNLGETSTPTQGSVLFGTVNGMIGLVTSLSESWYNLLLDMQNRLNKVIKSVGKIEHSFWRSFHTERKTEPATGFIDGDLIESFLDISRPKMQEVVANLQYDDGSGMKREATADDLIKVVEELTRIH

Turning to `O=C1CC[C@H](NC(=O)C2CCc3ncccc32)C(=O)N1` (stereo partly drawn) [Example 19, N-((S)-2,6-Dioxopiperidin-3-yl)-6,7-dihydro-5H-cyclopenta[b]pyridine-5-carboxamide], the Kd amounted to 1 nM. Turning to `O=C1CC[C@@H](NC(=O)C2CCc3ncccc32)C(=O)N1` (stereo partly drawn) [Example 20, N-((R)-2,6-Dioxopiperidin-3-yl)-6,7-dihydro-5H-cyclopenta[b]pyridine-5-carboxamide], the Kd is 3 nM. For `O=C1CC[C@H](NC(=O)c2coc3ccccc23)C(=O)N1` [Example 21, (S)-N-(2,6-Dioxopiperidin-3-yl)benzofuran-3-carboxamide], the Kd is 1 nM.

As for `O=C1CC[C@H](NC(=O)C2CCc3cccnc32)C(=O)N1` (stereo partly drawn) [Example 23, N-((S)-2,6-Dioxopiperidin-3-yl)-6,7-dihydro-5H-cyclopenta[b]pyridine-7-carboxamide], the Kd was 25 nM. In the case of `O=C1CC[C@@H](NC(=O)c2csc3ccccc23)C(=O)N1` [Example 24, (R)-N-(2,6-Dioxopiperidin-3-yl)benzo[b]thiophene-3-carboxamide] it was 9 nM; in that of `O=C1CC[C@H](NC(=O)c2csc3ccccc23)C(=O)N1` [Example 25, (S)-N-(2,6-Dioxopiperidin-3-yl)benzo[b]thiophene-3-carboxamide], 23 nM.

In the case of `O=C1CC[C@@H](NC(=O)[C@H]2CCCc3ccccc32)C(=O)N1` [Example 26, (S)-N-((R)-2,6-Dioxopiperidin-3-yl)-1,2,3,4-tetrahydronaphthalene-1-carboxamide], the Kd was 6 nM. The result for `O=C1CC[C@H](NC(=O)[C@H]2CCCc3ccccc32)C(=O)N1` [Example 27, (S)-N-((S)-2,6-Dioxopiperidin-3-yl)-1,2,3,4-tetrahydronaphthalene-1-carboxamide] reads 3 nM; that for `O=C1CC[C@H](NC(=O)N2CCCc3ccccc32)C(=O)N1` [Example 28, (S)-N-(2,6-Dioxopiperidin-3-yl)-3,4-dihydroquinoline-1(2H)-carboxamide], 4 nM. Take `O=C1CC[C@H](NC(=O)N2CCc3cccnc32)C(=O)N1` [Example 29, (S)-N-(2,6-Dioxopiperidin-3-yl)-2,3-dihydro-1H-pyrrolo[2,3-b]pyridine-1-carboxamide]: the Kd was under 1 nM. `O=C1CC[C@H](NC(=O)N2CCCc3cccnc32)C(=O)N1` [Example 30, (S)-N-(2,6-Dioxopiperidin-3-yl)-3,4-dihydro-1,8-naphthyridine-1 (2H)-carboxamide]: the Kd was determined as 4 nM. In the case of `O=C1CC[C@H](NC(=O)C2CCOc3ccccc32)C(=O)N1` (stereo partly drawn) [Example 31, N-[(3S)-2,6-Dioxo-3-piperidyl]chromane-4-carboxamide] it was 5 nM. As to `O=C1CC[C@H](NC(=O)[C@H]2CCNc3ccccc32)C(=O)N1` [Example 32, (4S)-N-[(3S)-2,6-Dioxopiperidin-3-yl]-1,2,3,4-tetrahydroquinoline-4-carboxamide], the Kd was under 1 nM. On to `O=C1CC[C@H](NC(=O)[C@@H]2CCNc3ccccc32)C(=O)N1` [Example 33, (4R)-N-[(3S)-2,6-Dioxopiperidin-3-yl]-1,2,3,4-tetrahydroquinoline-4-carboxamide], for which the Kd was 6 nM. In the case of `O=C1CC[C@@H](NC(=O)c2coc3ccccc23)C(=O)N1` [Example 34, (R)-N-(2,6-Dioxopiperidin-3-yl)benzofuran-3-carboxamide] it was 26 nM. The result for `O=C1CC[C@@H](NC(=O)N2CCCc3ccccc32)C(=O)N1` [Example 35, (R)-N-(2,6-Dioxopiperidin-3-yl)-3,4-dihydroquinoline-1(2H)-carboxamide] reads 19 nM. For the compound `O=C1CC[C@@H](NC(=O)N2CCc3cccnc32)C(=O)N1` [Example 36, (R)-N-(2,6-Dioxopiperidin-3-yl)-2,3-dihydro-1H-pyrrolo[2,3-b]pyridine-1-carboxamide], the Kd was found to be 10 nM. The result for `O=C1CC[C@H](NC(=O)C2CCNc3ccccc32)C(=O)N1` (stereo partly drawn) [Example 37, N-[(3S)-2,6-Dioxo-3-piperidyl]-1,2,3,4-tetrahydroquinoline-4-carboxamide] reads under 1 nM. Turning to `CN1CCC(C(=O)N[C@H]2CCC(=O)NC2=O)c2ccccc21` (stereo partly drawn) [Example 38, N-[(3S)-2,6-Dioxo-3-piperidyl]-1-methyl-3,4-dihydro-2H-quinoline-4-carboxamide], the Kd was found to be 5 nM.

On to `O=C1CC[C@@H](NC(=O)C2CCNc3ccccc32)C(=O)N1` (stereo partly drawn) [Example 39, N-[(3R)-2,6-Dioxo-3-piperidyl]-1,2,3,4-tetrahydroquinoline-4-carboxamide], for which the Kd is 19 nM.

Consider `CN1CCC(C(=O)N[C@@H]2CCC(=O)NC2=O)c2ccccc21` (stereo partly drawn) [Example 40, N-[(3R)-2,6-Dioxo-3-piperidyl]-1-methyl-3,4-dihydro-2H-quinoline-4-carboxamide], for which the Kd came out at 68 nM.

For the compound `O=C1CC[C@@H](NC(=O)C2CCOc3ccccc32)C(=O)N1` (stereo partly drawn) [Example 41, N-[(3R)-2,6-Dioxo-3-piperidyl]chromane-4-carboxamide], the Kd is 14 nM.

`COC(=O)c1ccc2c(C(=O)N[C@H]3CCC(=O)NC3=O)c[nH]c2c1` [Example 42, Methyl (S)-3-((2,6-dioxopiperidin-3-yl)carbamoyl)-1H-indole-6-carboxylate]: the Kd was found to be 18 nM. In the case of `O=C1CC[C@@H](NC(=O)[C@H]2CCNc3ccccc32)C(=O)N1` [Example 43, (4S)-N-[(3R)-2,6-Dioxopiperidin-3-yl]-1,2,3,4-tetrahydroquinoline-4-carboxamide], the Kd was under 1 nM.

For `O=C1CC[C@@H](NC(=O)[C@@H]2CCNc3ccccc32)C(=O)N1` [Example 44, (4R)-N-[(3R)-2,6-Dioxopiperidin-3-yl]-1,2,3,4-tetrahydroquinoline-4-carboxamide], the Kd stood at 12 nM. For `O=C1CC[C@@H](NC(=O)[C@@H]2CCCc3ccccc32)C(=O)N1` [Example 45, (1R)-N-[(3R)-2,6-Dioxopiperidin-3-yl]-1,2,3,4-tetrahydronaphthalene-1-carboxamide], the Kd amounted to 4 nM. On to `O=C1CC[C@H](NC(=O)[C@@H]2CCCc3ccccc32)C(=O)N1` [Example 46, (1R)-N-[(3S)-2,6-Dioxopiperidin-3-yl]-1,2,3,4-tetrahydronaphthalene-1-carboxamide], for which the Kd was 39 nM. In the case of `O=C1CC[C@H](NC(=O)c2cnn3ccccc23)C(=O)N1` [Example 47, (S)-N-(2,6-Dioxopiperidin-3-yl)pyrazolo[1,5-a]pyridine-3-carboxamide] it was under 1 nM; in that of `O=C1CC[C@@H](NC(=O)c2cnn3ccccc23)C(=O)N1` [Example 48, (R)-N-(2,6-Dioxopiperidin-3-yl)pyrazolo[1,5-a]pyridine-3-carboxamide], under 1 nM. For `O=C1CC[C@@H](NC(=O)c2n[nH]c3ccccc23)C(=O)N1` [Example 49, (R)-N-(2,6-Dioxopiperidin-3-yl)-1H-indazole-3-carboxamide], the Kd is under 1 nM. The result for `O=C1CC[C@H](NC(=O)c2ncc3ccccn23)C(=O)N1` [Example 50, (S)-N-(2,6-Dioxopiperidin-3-yl)imidazo[1,5-a]pyridine-3-carboxamide] reads 4 nM; that for `O=C1CC[C@@H](NC(=O)c2ncc3ccccn23)C(=O)N1` [Example 51, (R)-N-(2,6-Dioxopiperidin-3-yl)imidazo[1,5-a]pyridine-3-carboxamide], 3 nM; that for `O=C1CC[C@H](NC(=O)c2ccc3ccccn23)C(=O)N1` [Example 52, (S)-N-(2,6-Dioxopiperidin-3-yl)indolizine-3-carboxamide], 6 nM. In the case of `O=C1CC[C@@H](NC(=O)c2ccc3ccccn23)C(=O)N1` [Example 53, (R)-N-(2,6-Dioxopiperidin-3-yl)indolizine-3-carboxamide] it was 2 nM; in that of `O=C1CC[C@H](NC(=O)c2cnc3ccccn23)C(=O)N1` [Example 54, (S)-N-(2,6-Dioxopiperidin-3-yl)imidazo[1,2-a]pyridine-3-carboxamide], 1 nM. `O=C1CC[C@@H](NC(=O)c2cnc3ccccn23)C(=O)N1` [Example 55, (R)-N-(2,6-Dioxopiperidin-3-yl)imidazo[1,2-a]pyridine-3-carboxamide]: the Kd is under 1 nM. In the case of `O=C1CC[C@H](NC(=O)c2cnn3cccnc23)C(=O)N1` [Example 56, (S)-N-(2,6-Dioxopiperidin-3-yl)pyrazolo[1,5-a]pyrimidine-3-carboxamide] it was 8 nM. The result for `O=C1CC[C@@H](NC(=O)c2cnn3cccnc23)C(=O)N1` [Example 57, (R)-N-(2,6-Dioxopiperidin-3-yl)pyrazolo[1,5-a]pyrimidine-3-carboxamide] reads 7 nM; that for `CN(C(=O)N1CCc2ccccc21)C1CCC(=O)NC1=O` (centres unmarked) [Example 58, N-(2,6-Dioxopiperidin-3-yl)-N-methylindoline-1-carboxamide], 22 nM; that for `CN(C(=O)N1CCc2ccccc21)[C@H]1CCC(=O)NC1=O` [Example 59, (S)-N-(2,6-Dioxopiperidin-3-yl)-N-methylindoline-1-carboxamide], 20 nM.

Regarding `CN(C(=O)N1CCc2ccccc21)[C@@H]1CCC(=O)NC1=O` [Example 60, (R)-N-(2,6-Dioxopiperidin-3-yl)-N-methylindoline-1-carboxamide], the Kd is 30 nM.
